Earlier results in patent US20110236307A1, “IN VIVO IMAGING METHOD” (priority 2008, published 2011).

Test system: protein deposition in PD
Conditions: PD patients, brain

## [11CH3]Nc1ccc(-c2nc3ccc(O)cc3s2)cc1 [[^11C]PIB, ^11C-6-OH-benzothiazole]
  in vivo binding pattern: decreased from the brainstem to the cortical areas
